Holding throughout (assay): NCI tumour cell line growth inhibition, 48 h
For test [1], the system named is BT-549 breast.
Test [2] deals with SF-268 CNS.
Test [3] concerns MCF7 breast.
Test [4] deals with A498 renal.
For test [5], the system named is DU-145 prostate.
Test [6] relates to 786-0 renal.
Test [7] relates to COLO 205 colon.
The test system of test [8] is SNB-19 CNS.

“And” between values parts separate entries of the source, which are not always exact repeats. Identical values can stand only once.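 Results reflect a 48-hour exposure of cells in 96-well plates to compound at five concentrations. GI50: concentration for 50% inhibition of growth. TGI: total growth inhibition.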

In the case of `COc1ccc(-n2cc(-c3cc(OC)c(OC)c(OC)c3)nc2SCc2ccccc2)cc1OC`, the GI50 in test [1] is > 82.7 µM; in test [2], > 100 µM; in test [3], 34.6 µM; in test [4] it was > 100 µM; in test [5] it was > 100 µM; in test [6], > 100 µM. For the same compound, the results for the GI50 in test [7] and in test [8] were 69.3 µM and > 100 µM, respectively. Besides, the TGI in test [1], in test [2], in test [3], in test [4], in test [5] and in test [6] was > 100 µM throughout. The TGI in test [7] and in test [8] was > 100 µM each time.
Consider `Oc1ccccc1CNCC12CC3CC(CC(C3)C1)C2`, for which the GI50 is 14 µM in test [1]; 46.8 µM in test [2]; 16.8 µM in test [3]; 10.4 µM in test [4]; 48.9 µM in test [5]; 16.2 µM in test [6]. In addition, the GI50 is 15.6 µM in test [7] and 60.3 µM in test [8]. Further, the TGI in test [1] is 74.8 µM; in test [2], > 100 µM; in test [3], 34.7 µM; in test [4], 31.5 µM; in test [5] it was > 100 µM; in test [6], 33.5 µM. Further, the figures for the TGI in test [7] and in test [8] were 31 µM and > 100 µM, respectively.
With `COc1cc2c(cc1OCCCCCOc1ccc(-n3c(C)nc4ccccc4c3=O)cc1)N=C[C@@H]1CCCN1C2=O`, the GI50 in test [1] is 0.137 µM; in test [2], 0.376 µM; in test [3], 0.271 µM; in test [4], 0.214 µM; in test [5], 0.41 µM; in test [6], 0.157 µM. Besides, the figures for the GI50 in test [7] and in test [8] were 0.165 µM and 1 µM, respectively. Further, the TGI turned out to be 0.34 µM in test [1]; 1.3 µM in test [3]; 0.543 µM in test [4]; 3.74 µM in test [5]; 0.36 µM in test [6]; 0.37 µM in test [7].
For `CC1(O)CC(c2nc(-c3ccc4ccc(-c5ccccc5)nc4c3)c3c(N)nccn23)C1` (centres undefined), the GI50 in test [1] is 6.92 µM and 5.87 µM; in test [2] it was 12.9 µM and > 10 µM; in test [3] it was 0.122 µM and 0.332 µM; in test [4], 3.32 µM and 4.55 µM; in test [5], 7.4 µM and 8.12 µM; in test [6] it was 15 µM and > 10 µM. The GI50 is 0.346 µM and 0.0989 µM in test [7]; 19.8 µM and > 10 µM in test [8]. The TGI in test [1] is 24.3 µM and > 10 µM; in test [2] it was 55.3 µM and > 10 µM; in test [3] it was > 43.3 µM; in test [4], 12.8 µM and > 10 µM; in test [5], > 86.8 µM; in test [6], 53.7 µM and > 10 µM. Further, the TGI in test [7] is 14.2 µM and 4.07 µM; in test [8], > 100 µM.
`Cc1cc(NCc2cc(Nc3ccnc4cc(Cl)ccc34)ccc2F)nc(N2CCN(C)CC2)n1`: the GI50 in test [1] was 1.77 µM; in test [2] it was 1.81 µM; in test [3] it was 1.94 µM; in test [4], 1.54 µM; in test [5], 2.63 µM; in test [6], 1.44 µM. For the same compound, the GI50 is 1.72 µM in test [7] and 2.72 µM in test [8]. In addition, the TGI in test [1] amounted to 3.65 µM; in test [2] it was 4.53 µM; in test [3] it was 5.65 µM; in test [4], 3.22 µM; in test [5], 11.4 µM; in test [6] it was 2.88 µM. Moreover, the TGI in test [7] was determined as 3.66 µM; in test [8], 12.9 µM.
Turning to `COc1ccccc1N1CCN(CCc2c[nH]c3cc4c(cc23)OCO4)CC1`, the GI50 in test [1] was 23.3 µM; in test [2], 35.6 µM; in test [3] it was 33.3 µM; in test [4], 16.6 µM; in test [5], 28.9 µM; in test [6] it was 32.4 µM. For the same compound, the GI50 was 15.3 µM in test [7] and 26 µM in test [8]. Further, the TGI in test [1] was > 100 µM; in test [2], > 100 µM; in test [3], > 100 µM; in test [4], 83 µM; in test [5], > 100 µM; in test [6], > 100 µM. Further, the TGI is 34.7 µM in test [7] and > 100 µM in test [8].
Take `COc1cc(Cl)cc(-c2nn(-c3cccc(NC(=O)Nc4cc(C(F)(F)F)cc(C(F)(F)F)c4)c3)cc2-c2ccncc2)c1`: the GI50 in test [1] was 2.34 µM; in test [2], 0.645 µM; in test [3], 0.439 µM; in test [4] it was 0.629 µM; in test [5], 0.53 µM; in test [6] it was 0.821 µM. Moreover, the GI50 in test [7] was 0.528 µM; in test [8], 0.612 µM. Moreover, the TGI in test [1] is 6.78 µM; in test [2], 4.35 µM; in test [3], 9.3 µM; in test [4] it was 4.81 µM; in test [5], 12.4 µM; in test [6] it was 2.64 µM. The TGI in test [7] was determined as 1.97 µM; in test [8] it was 12.7 µM.
Take `COc1cc(NC(=O)CSc2nc3ccc(C)cc3c(=O)n2Cc2ccccc2)cc(OC)c1OC`: the GI50 in test [1] was 2.98 µM; in test [2] it was 6.91 µM; in test [3], 9.98 µM; in test [4], 1.01 µM; in test [5] it was 84.7 µM; in test [6] it was 3.2 µM. The GI50 in test [7] is > 100 µM; in test [8], 21.4 µM. The TGI in test [1] is 20 µM; in test [2], > 100 µM; in test [3], > 100 µM; in test [4], 5.55 µM; in test [5], > 100 µM; in test [6], 14.6 µM. Moreover, the TGI in test [7] and in test [8] was > 100 µM each time.
Turning to `CC(=O)OCC(=O)[C@@]12OC(C)(C)O[C@@H]1C[C@H]1[C@@H]3CC=C4C[C@@H](O)CC[C@]4(C)[C@H]3CC[C@@]12C`, the TGI in test [1] is 96.4 µM; in test [2], > 100 µM; in test [3] it was > 100 µM; in test [4], > 100 µM; in test [5], > 100 µM; in test [6], > 100 µM. Also, the TGI in test [7] and in test [8] was > 100 µM in each case.

These data come from PubChem BioAssay (NCI).
